# From patent US4153684A, “Immunizing and anti-infectious adjuvant agents constituted by N-acetyl-muramyl-L-alanyl-D-glutamic acid derivatives” (priority 1976, dated 1979)
# Where “and” joins values, the source holds several entries; their conditions need not be identical. Equal entries are not always repeated.
# Assays:
# mice = assay: LD50 by intravenous injection on mice, Mur-NAc-L-Ser-D-iso-Gln; assay type: in vivo; conditions: mice aged two months
# Description: By progressively increasing the doses administered, that for which the mortality of the mice of a single batch is established at 50% (LD50) is determined.
# anti-albumin antibodies [1] = assay: Adjuvant character in aqueous phase, first antigen dose 0.05 mg BSA, PA and ABC (Ser series); assay type: in vivo, Swiss mice; conditions: 100 μg, first BSA dose 0.05 mg
# Description: (§1) Groups of 8 Swiss mice aged two months receive, by subcutaneous injection, 0.5 mg of antigen constituted by the albumin of bovine serum (BSA) and 0.1 mg of the tested substance in an isotonic saline solution. This high dose of antigen, since it is situated at the limit of the paralysing dose with respect to the immunising response, therefore carries with it a weak response or no response to the antigen alone in the tests; it then constitutes a severe criterion for showing the activity of an adjuvant substance. Thirty days later, the mice receive a further dose containing 0.1 mg of the same antigen.
# (§2) The strength of the antibody is determined by passive hemagglutination by using the red blood corpuscles of sheep treated with formalin and recovered from the antigen studied by the method described by A. A. Hirata and M. W. Brandiss (J. Immunol., 100, 641-648, 1968). The taking of the blood occurred 14, 28, 34 and 36 days after the first injection.
# (§3) By way of comparison, the mice receive, instead of the Mur-NAc-L-Ser-D-iso-Gln, either lipopolysaccharides (LPS) (extract of S. Enteritidis by the water-phenol method), or the adjuvant denoted by the name "WSA" and described by Adam et al. [Infect. Immun. (1973) 7, 855-861]. The control mice only received the antigen.
# These tests were carried out again with limitation of the dose of antigen in the first injection to 0.05 mg, the other conditions being the same. This weaker dose of antigen gives by itself a positive response with the controls which have received the antigen without adjuvant. It thus allows to be shown a substance which inhibits the response of immunising the disorder. Moreover, an adjuvant substance, under these conditions, always increases the strength of antibody with respect to that of the controls.
# In these tests, the determination of the strength of antibody has been effected simultaneously by passive hemagglutination (PA) and by the method of fixation of the antigen by the serum (ABC), such as described by P. Minden and S. Parr (Handbook of Exp. Immunol., P. 463, D. M. Weir ed. Blackwell Scient. Pub. Oxford and Edinburgh, 1967).
# anti-albumin antibodies [2] = assay: Adjuvant character in aqueous phase, 0.5 mg BSA (Ser series); assay type: in vivo, Swiss mice
# Description: In the series of tests of which the results are indicated hereafter, the influence of the active principle according to the invention on the strength of the anti-albumin antibodies has been studied under the following conditions.
# as §1, §2, §3
# antibody to ovalbumin = assay: Adjuvant character in oily phase: proportion of antibody to ovalbumin (NHCH3 series); assay type: in vivo, Hartley guinea-pigs; conditions: 500 μg ovalbumin, 100 μg in FIA emulsion, 21 days
# Description: As for the preceding tests, one follows the increase of the proportion of antibody caused by the injection of antigen and of the compound of the invention, but, in the present case, the injection contains an oily phase constituted by Freund's incomplete adjuvant (in water-in-oil emulsion).
# For these tests, Hartley guinea-pigs of 350 g were used. The control animals receive, in each of the hind feet 0.1 ml of emulsion, either of FIA, or of FCA (Freund's complete adjuvant) containing 500 μg of ovalbumin (antigen). The test product is administered at the rate of 100 μg, in an emulsion of FIA.
# 21 days after the injection, the proportion of antibody is determined by passive hemagglutatination (PHA), as previously, and by precipitation by the method of Folin.
# anti-albumin antibodies [3] = assay: Adjuvant character in aqueous solution: anti-albumin antibodies by passive hemagglutination (NHCH3 series); assay type: in vivo, Swiss mice
# Description: Groups of 8 Swiss mice aged two months receive, by subcutaneous injection, 0.5 mg of antigen constituted by the albumin of bovine serum (BSA) and 0.1 mg of the substance tested in an isotonic saline solution. […] Thirty days later, the mice receive a further dose containing 0.1 mg of the same antigen.
# The strength of antibody is determined by passive hemagglutination, by using the red blood corpuscles of sheep treated for formalin and recovered from the antigen studied by the method described by A. A. Hirata and M. W. Brandiss (J. Immunol., 100, 641-648, 1968). The taking of the blood took place 14, 28, 34 and 36 days after the first injection.
# [4] = tested on: retarded hypersensitivity to ovalbumin; assay: Retarded hypersensitivity cutaneous test to ovalbumin (esters); assay type: in vivo, Hartley guinea-pigs; conditions: 100μg in FIA emulsion, challenge day 18, read 48 hours after
# Description: The tests are effected on batches of 6 Hartley guinea-pigs, females, of 350 g. The administration is made by intradermal injection in the planter pad of each of the hind feet. […] The compound according to the invention is administered at the rate of 0.1 mg contained in the emulsion containing the FIA.
# Eighteen days after this immunisation, one looks for possible reactions of retarded hypersensitivity in the antigen on injecting indradermally 0.01 mg or 5 μg of ovalbumin on the side of the animals, and 48 hours after, the reaction at the point of injection is observed. The diameter in mm of the reaction thus caused is measured.
# Klebsiella pneumoniae = assay: Anti-infectious protection, intramuscular inoculation of 10^4 K.pneumoniae; assay type: in vivo, hybrid mice (C57B1/6×AKR)Fl; conditions: for Number of animals surviving on day 3 / Number of animals surviving on day 5 / Number of animals surviving on day 8: mouse, in vivo
# [5] = tested on: antibody specific to the ovalbumin; assay: Adjuvant character in oily phase: serum antibody specific to ovalbumin (esters); assay type: in vivo, Hartley guinea-pigs; conditions: 100μg in FIA emulsion; for Serum antibody Precipitation: intradermal, 21 days; for Serum antibody Agglutination: passive hemagglutination
# anti-albumin antibody = assay: Adjuvant character in aqueous phase: anti-albumin antibody by passive hemagglutination (esters); assay type: in vivo, Swiss mice
# Description: In the series of tests of which the results are indicated hereafter, the influence of the active principle according to the invention on the proportion of the anti-albumin antibody has been studied under the following conditions.
# Groups of 8 Swiss mice aged two months receive by subcutaneous injection (SC) or orally (PO) 0.5 mg of antigen constituted by the albumin of bovine serum (BSA) with or without the substance tested in an isotonic saline solution. This large dose of antigen, since it is situated at the limit of the paralysing dose with respect to the immunising response, on account of this fact has a weak response or no response to the antigen alone in the case of the controls; it therefore constitutes a severe criterion for showing the activity of an adjuvant substance. Thirty days later, the mice receive, by the same method of administration, a further dose containing 0.1 mg of the same antigen.
# The proportion of antibody is determined by passive hemagglutination by using the red blood corpuscles of sheep treated with formalin and recovered from the antigen studied according to the method described by A. A. Hirata and M. W. Brandiss (J. Immunol., 100, 641-648, 1968). The taking of the blood occurred 14, 28, 34 and 36 days after the first injection.
# as §3, with “comparison,” for “comparison, the”, “product according to the invention,” for “Mur-NAc-L-Ser-D-iso-Gln,”, “S.Enteritidis” for “S. Enteritidis”, “receive” for “received”
# The proportions of antibody express the maximum serum dilution which agglutinates a given quantity of red blood corpuscles of sheep.
# K. pneumoniae = tested on: K. pneumoniae; design: species or system mice; conditions: mouse, in vivo, iv
# [6] = 100μg S.C. with BSA 0.5 mg in isotonic saline
# [7] = 100μg S.C. with BSA 0.5 mg, further 0.1 mg BSA at 30 days
# [8] = I.V. 100 μg, 24 hours before the infection
# [9] = 100μg S.C. with BSA 0.5 mg in isotonic saline, maximum serum dilution agglutinating
# [10] = I.V. 100 μg, 1 hour after the infection
# [11] = per os 2000 μg, 24 hours before the infection
# [12] = iv, listed as Mur-NAc-L-Ala-D-Glu-(OCH3)2
Compound,Cutaneous test (diameter in mm) ([4]; ovalbumin 0.5 mg) [mm],% of protection (Klebsiella pneumoniae; [8]) [%],Number of animals surviving on day 3 (Klebsiella pneumoniae; iv),Number of animals surviving on day 5 (Klebsiella pneumoniae; iv),Number of animals surviving on day 8 (Klebsiella pneumoniae; iv),Serum antibody Precipitation ([5]; ovalbumin 0.5 mg) [µg/mL],Serum antibody Agglutination ([5]; ovalbumin 0.5 mg),Proportion of antibody 28th day (anti-albumin antibody; 100μg S.C. with BSA 0.5 mg),Proportion of antibody 14th day (anti-albumin antibody; [9]),Proportion of antibody 34th day (anti-albumin antibody; [7]),Proportion of antibody 36th day (anti-albumin antibody; [7]),% of protection (K. pneumoniae) [%],Number of animals surviving on day 3 (K. pneumoniae),Number of animals surviving on day 5 (K. pneumoniae),Number of animals surviving on day 8 (K. pneumoniae),% of protection (Klebsiella pneumoniae; [10]) [%],Number of animals surviving on day 3 (Klebsiella pneumoniae),Number of animals surviving on day 5 (Klebsiella pneumoniae),Number of animals surviving on day 8 (Klebsiella pneumoniae),% of protection (Klebsiella pneumoniae; [11]) [%],also measured
"CC(=O)NC1C(O)OC(CO)C(O)C1OC(C)C(=O)NC(CO)C(=O)NC(CCC(=O)O)C(N)=O [Mur-NAc-L-Ser-D-iso-Gln, 2-(2-acetamido-2-deoxy-3-O-D-glucopyranosyl)-D-propionyl-L-seryl-D-isoglutamine]",–,–,–,–,–,–,–,–,–,–,–,–,–,–,–,–,–,–,–,–,LD50 (mice): > 1 g per kg; Strength of antibody 28th day ABC (anti-albumin antibodies [1]): < 20; Strength of antibody 28th day PA (anti-albumin antibodies [1]): 3; Strength of antibody 34th day ABC (anti-albumin antibodies [1]): < 20; Strength of antibody 34th day PA (anti-albumin antibodies [1]): 50; Strength of antibody 42nd day PA (anti-albumin antibodies [1]): 260; Strength of antibody 36 day ABC (anti-albumin antibodies [1]): 230; Strength of antibody 36 day PA (anti-albumin antibodies [1]): 800; Strength of antibody 14th day ABC (anti-albumin antibodies [1]; fixation of the antigen by the serum): < 20; Strength of antibody 14th day PA (anti-albumin antibodies [1]; passive hemagglutination): < 3; Strength of antibody 28th day (anti-albumin antibodies [2]; 100μg S.C. with BSA 0.5 mg): 25; strength of antibody 14th day (anti-albumin antibodies [2]; [6]): 12; Strength of antibody 36th day (anti-albumin antibodies [2]; [7]): 1600; strength of antibody 34th day (anti-albumin antibodies [2]; [7]): 1600
"CNC(=O)C(CCC(=O)O)NC(=O)C(C)NC(=O)C(C)OC1C(O)C(CO)OC(O)C1NC(C)=O [Mur-NAc-L-Ala-D-Glu(NHCH3), 2-(2-acetamido-2-deoxy-3-O-D-glucopyranosyl)-D-propionyl-L-alanyl-D-(α-methylamide)-glutamic acid]",–,–,–,–,–,–,–,–,–,–,–,–,–,–,–,–,–,–,–,–,"Proportion of antibody Agglutination (antibody to ovalbumin; PHA): 6100; Proportion of antibody Precipitation (antibody to ovalbumin; method of Folin): 5500; strength of antibody 14th day (anti-albumin antibodies [3]; [6]): 6; strength of antibody 34th day (anti-albumin antibodies [3]; [7]): 1600; strength of antibody day (fourth column, 36 days) (anti-albumin antibodies [3]; [7]): 1600"
"COC(=O)CC[C@@H](NC(=O)[C@H](C)NC(=O)[C@@H](C)OC1C(O)C(CO)OC(O)C1NC(C)=O)C(N)=O (stereo partly drawn) [Mur-NAc-L-Ala-D-iso-Gln(OCH3), 2-(2-acetamido-2-deoxy-3-O-D-glucopyranose)-D-propionyl-L-alanyl-D-isoglutamine methyl ester]",12,29,21,3,11,2100,3000,12,12,100,800,–,–,–,–,–,–,–,–,–,–
"COC(=O)[C@@H](CCC(=O)O)NC(=O)[C@H](C)NC(=O)[C@@H](C)OC1C(O)C(CO)OC(O)C1NC(C)=O (stereo partly drawn) [Mur-NAc-L-Ala-D-Glu-α-OCH3, 2-(2-acetamido-2-deoxy-3-O-D-glucopyranose)-D-propionyl-L-alanyl-D-glutamic α-methyl ester]",–,67,24 and 16,24 and 16,23 and 14,–,–,12,12,200,400,65,16,16,12,88,11,9,6,40.5,"Cutaneous test (diameter in mm) ([4]; ovalbumin 1 mg): 6 ± 3 mm; Serum antibody Precipitation ([5]; ovalbumin 1 mg, nitrogen precipitable per ml serum): 2600 µg/mL; Proportion of antibody 14th day (anti-albumin antibody; 10μg S.C. with BSA 0.5 mg): 6; Proportion of antibody 28th day (anti-albumin antibody; 10μg S.C. with BSA 0.5 mg): 6; Proportion of antibody 34th day (anti-albumin antibody; 10μg S.C. with BSA 0.5 mg): 200; Proportion of antibody 36th day (anti-albumin antibody; 10μg S.C. with BSA 0.5 mg): 400; Proportion of antibody 14th day (anti-albumin antibody; 2000μg P.O. with BSA 0.5 mg): 6; Proportion of antibody 28th day (anti-albumin antibody; 2000μg P.O. with BSA 0.5 mg): 6; Proportion of antibody 34th day (anti-albumin antibody; 2000μg P.O. with BSA 0.5 mg): 50; Proportion of antibody 36th day (anti-albumin antibody; 2000μg P.O. with BSA 0.5 mg): 200"
"COC(=O)CC[C@@H](NC(=O)[C@H](C)NC(=O)[C@@H](C)OC1C(O)C(CO)OC(O)C1NC(C)=O)C(=O)OC (stereo partly drawn) [Mur-NAc-L-Ala-D-Glu(OCH3)2, 2-(2-acetamido-2-deoxy-3-O-D-glucopyranose)-D-propionyl-L-alanyl-D-glutamic dimethyl ester]",6.2,46,8,8,8,950,2600,50,50,400,800,52.5,15,12,10,88,10,9,8,50,Number of animals surviving on day 3 (Klebsiella pneumoniae; [12]): 21; Number of animals surviving on day 5 (Klebsiella pneumoniae; [12]): 19; Number of animals surviving on day 8 (Klebsiella pneumoniae; [12]): 15
